Laboratory results taken from patent publication US8921312B2, “Combination of insulin and ascorbate to enhance wound healing” (University of South Florida, priority 2006, dated 2014).

What was measured:
collagen types I and V = test: Collagen helix stability: pepsin digestion of culture medium, SDS-PAGE; assay type: cell-based, bovine; conditions: pepsin in 0.5M acetic acid
Protocol: Cell Culture-Keratocytes were isolated from adult bovine corneas using two sequential collagenase digestions as previously described (see […], and […]. Production of prostaglandin D synthase as a keratan sulfate proteoglycan by cultured bovine keratocytes Invest Ophthalmol Vis Sci. 2001; 42:1201-1207; which is incorporated herein by reference). […] Each sample received a second 50 μl aliquot from the pepsin stock, and digestion was allowed to continue for an additional six hours at 4° C. The samples were titrated with 1 N NaOH to pH 8.0 to inactivate the enzyme, dialyzed against water overnight, lyophilized, reconstituted in 1 X SDS running buffer and separated on 10% bis-tris gels under reducing conditions. The gels were stained with Safestain following the manufacturer's protocol.

keratocan = test: Western blot of keratan sulfate proteoglycan accumulation in the medium: keratocan; assay type: cell-based, bovine
Protocol: (§1) Cell Culture-Keratocytes were isolated from adult bovine corneas using two sequential collagenase digestions as previously described (see […], and […]. Production of prostaglandin D synthase as a keratan sulfate proteoglycan by cultured bovine keratocytes Invest Ophthalmol Vis Sci. 2001; 42:1201-1207; which is incorporated herein by reference). […] Western blot analysis-Core protein and protein levels in the media were measured by Western blot as previously described. In brief, the culture media was collected from each culture condition, concentrated by spin filtration to one tenth or one fiftieth of the original volume. The size of the aliquot needed from each sample to provide a similar signal on film by Western blot was empirically determined. The measured pixel density was then divided by the DNA content of the culture equivalent to the amount loaded and expressed as pixel density per μg DNA. Blots were probed with polyclonal antibodies to bovine keratocan or lumican (diluted 1:1000) or prostaglandin D synthase (PGDS) (1:20,000). The lumican and keratocan antibodies are peptide antibodies raised against the core protein^48. The rabbit antiserum to bovine PGDS was a generous gift of Gary […] University). Membranes were rinsed and incubated for 1 hour in 1:10,000 horseradish peroxidase (HRP)-conjugated secondary IgG (GE Healthcare, Piscataway, N.J.). Protein bands were visualized using ECL (GE Healthcare, Piscataway, N.J.) on Kodak Bio-Max XAR X-ray film. Band density was measured using a Bio-Rad GS-710 Calibrated Imaging Densitometer (Bio-Rad, Hercules, Calif.).

cells = conditions: cited from earlier work
[1] = tested on: prostaglandin D synthase (PGDS); test: Western blot of keratan sulfate proteoglycan accumulation in the medium: PGDS; assay type: cell-based, bovine
Protocol: as §1, with “Membranes were rinsed and incubated for 1 hour in 1:10,000 horseradish peroxidase (HRP)-conjugated secondary IgG (GE Healthcare, Piscataway, N.J.). Protein bands were visualized using ECL (GE Healthcare, Piscataway, N.J.) on Kodak Bio-Max XAR X-ray film.” left out

lumican = test: Western blot of keratan sulfate proteoglycan accumulation in the medium: lumican; assay type: cell-based, bovine
Protocol: as §1

keratocytes [2] = test: Keratocyte population growth in defined media (DNA content, Cyquant); assay type: cell-based, bovine; conditions: DMEM/F12; insulin 10 μg/ml, ascorbate 1 mM; days 1-10
Text: Cell Culture-Keratocytes were isolated from adult bovine corneas using two sequential collagenase digestions as previously described (see […], and […]. Production of prostaglandin D synthase as a keratan sulfate proteoglycan by cultured bovine keratocytes Invest Ophthalmol Vis Sci. 2001; 42:1201-1207; which is incorporated herein by reference). […] DNA quantitation-Cell layers were harvested on days 1, 4, 7 and 10 to measure DNA content using Cyquant (Invitrogen, Carlsbad, Calif.). Briefly, the cell layers were rinsed with PBS, frozen, thawed and solubilized in a lysis buffer supplemented with a DNA binding dye. The DNA content was determined at 480/535 nm by measuring 4 wells in triplicate and comparing the values to a calf thymus DNA standard. The DNA content of parallel cultures was measured for experiments that utilized the cell layer. Cell proliferation-Cultures were radiolabeled with 20 μCi ^3H-thymidine/ml of medium for 72 hours beginning on days 1 and 4. The labeled medium was removed upon harvesting, and the cell layers washed with cold PBS. The cell layers were processed as described under DNA quantitation. Incorporation into DNA was determined as previously described.

keratocytes [3] = test: Collagen synthesis: 3H-glycine incorporation into collagenase-sensitive protein; assay type: cell-based, bovine; conditions: 3H-glycine 72 h
Protocol: Cell Culture—Keratocytes were isolated from adult bovine corneas using two sequential collagenase digestions as previously described (see Berryhill B L, Beales M P, and Hassell J R. Production of prostaglandin D synthase as a keratan sulfate proteoglycan by cultured bovine keratocytes Invest Ophthalmol Vis Sci. 2001; 42:1201-1207; which is incorporated herein by reference). Cells were plated in DMEM/F12 at high density (20,000 cells/cm^2) in 6-well plates (Costar, Cambridge, Mass.) and allowed to attach overnight at 37° C. in 5% CO2. The medium was changed the next day (day 1) and on days 4, 7 and 10 to fresh DMEM or DMEM supplemented with insulin (10 μg/ml), with or without 1 mM 2-phospho-L-ascorbic acid (ascorbate). Ethyl-3,4-dihydroxybenzoate (EDB) was added at 0.08 mM and 0.4 mM final concentration on day 1.
Collagen synthesis—The incorporation of ^3H-glycine into collagen was determined as previously described. In summary, cultures were incubated for 72 hours in medium containing 25 μCi ^3H-glycine/ml beginning on day 1. Media was adjusted to 4M guanidine HCl and the cell layers extracted in 4M guanidine HCl. Unincorporated isotope in media and cell layers was removed by chromatography on PD10 columns equilibrated and eluted with 4M guanidine HCl (GE Healthcare, Piscataway, N.J.). Fractions containing incorporated radioactivity were pooled, dialyzed against water and 400 μl aliquots incubated with or without 2.5 Units collagenase form III (Advanced Biofactures, Lynbrook, N.Y.) in collagenase digestion medium (3 mM N-ethyl maleimide, 50 mM Tris pH 7.5, 150 mM NaCl and 5 mM CaCl2) for 3 hours at 37° C. Undigested proteins were precipitated with carrier BSA using cold 10% TCA containing 0.5% tannic acid and released incorporated counts measured by liquid scintillation. The DNA content was determined as described above.

keratan sulfate = test: Incorporation of 35SO4 into keratan sulfate (endo-β-galactosidase sensitive); assay type: cell-based, bovine; conditions: 72 h labeling; medium; CPM per μg DNA; vs control
Text: (§2) Cell Culture-Keratocytes were isolated from adult bovine corneas using two sequential collagenase digestions as previously described (see […], and […]. Production of prostaglandin D synthase as a keratan sulfate proteoglycan by cultured bovine keratocytes Invest Ophthalmol Vis Sci. 2001; 42:1201-1207; which is incorporated herein by reference). […] The medium was collected, frozen, lyophilized and reconstituted in 4 M guanidine HCl. Unincorporated isotope was removed using PD 10 columns Fractions containing incorporated ^35SO4 were combined and concentrated using Amicon Ultra spin-concentrators. Incorporation into CS and KS was determined by digestion with chondroitinase ABC or endo-β-galactosidase (Seikagaku, Associates of Cape Cod, E. Falmouth, Mass.) as previously described. Aliquots containing equivalent incorporated radioactivity were fractionated using a Superose 6 12/30 HR column (GE Healthcare, Piscataway, N.J.) equilibrated and eluted with 4M guanidine HCl (0.05 NaAc, pH6.5) at 0.3 ml/min Fractions (0.6 ml) were collected and incorporation measured by liquid scintillation counting. The levels of CS and KS in each fraction were determined as described above.

chondroitin sulfate = test: Incorporation of 35SO4 into chondroitin sulfate (chondroitinase ABC sensitive); assay type: cell-based, bovine; conditions: 72 h labeling; medium; CPM per μg DNA; vs control
Text: as §2

[4] = 0.08 mM EDB in medium containing insulin and ascorbate, 72 hours, vs insulin+ascorbate
[5] = 0.4 mM EDB in medium containing insulin and ascorbate
[6] = medium day 4, pixel density per μg DNA, vs control

| Molecule | Pepsin-resistant collagen bands in the medium with EDB (collagen types I and V; 0.4 mM EDB in insulin plus ascorbate medium) | Reduction of keratocan accumulation (keratocan; [4]) [%] | Keratocan accumulation in the medium (keratocan; [5]) | Toxicity to the cells (cells) | PGDS level in the medium with EDB ([1]; EDB in medium containing insulin and ascorbate) | Reduction of lumican accumulation (lumican; [4]) [%] | Lumican accumulation in the medium (lumican; [5]) | Pepsin-resistant collagen (α1(I), α2(I), α1(V) bands) in the medium (collagen types I and V; SDS-PAGE) | Keratocan level in the medium, fold increase compared to control (keratocan; [6]) | Cell number (DNA content) over 10-day culture period (keratocytes [2]) | Total collagen synthesized, fold more compared to control (keratocytes [3]; day 1-4, insulin 10 μg/ml, ascorbate 1 mM, vs control medium) [fold] | Collagen in the cell layer, fold increase compared to control (keratocytes [3]; cell layer, vs control) [fold] | Collagen in the medium, fold increase compared to control (keratocytes [3]; medium, vs control) [fold] | PGDS level in the medium [1, 6] | Lumican level in the medium, fold increase compared to control (lumican; [6]) | 35SO4 incorporation into KS, fold compared to control (keratan sulfate) | 35SO4 incorporation into CS, fold compared to control (chondroitin sulfate) |
| --- | --- | --- | --- | --- | --- | --- | --- | --- | --- | --- | --- | --- | --- | --- | --- | --- | --- |
| CCOC(=O)c1ccc(O)c(O)c1 [EDB, Ethyl-3,4-dihydroxybenzoate] | absent | 28 | levels below of those measured in insulin alone | not toxic to the cells | declined but the decrease was not significant | 19 | levels below of those measured in insulin alone |  |  |  |  |  |  |  |  |  |  |
| insulin: insulin added at 10 μg/ml to defined DMEM medium for keratocyte culture |  |  |  |  |  |  |  | absent | no effect | increased in number | 4 | 5 | 3 | neither ascorbate nor insulin affected PGDS levels | no effect | only minor changes | only minor changes |
